From patent US20250136606A1, “MODULATORS OF TRPML, THEIR COMPOSITIONS AND METHODS OF USE” (Caraway Therapeutics, Inc., priority 2021, published 2025)

Assays:
Type in all cases: cell-based
Conditions in all cases: fluorescent calcium assay
[1] = molecular target: T1, TRPML3 (Homo sapiens, UniProt Q8TDD5); experiment: Fluorescent TRPML3 assay (performed as for TRPML1, substituting the TRPML3 subtype)
T1 construct: expressed in transfected cells
T1 sequence (Q8TDD5 1-553): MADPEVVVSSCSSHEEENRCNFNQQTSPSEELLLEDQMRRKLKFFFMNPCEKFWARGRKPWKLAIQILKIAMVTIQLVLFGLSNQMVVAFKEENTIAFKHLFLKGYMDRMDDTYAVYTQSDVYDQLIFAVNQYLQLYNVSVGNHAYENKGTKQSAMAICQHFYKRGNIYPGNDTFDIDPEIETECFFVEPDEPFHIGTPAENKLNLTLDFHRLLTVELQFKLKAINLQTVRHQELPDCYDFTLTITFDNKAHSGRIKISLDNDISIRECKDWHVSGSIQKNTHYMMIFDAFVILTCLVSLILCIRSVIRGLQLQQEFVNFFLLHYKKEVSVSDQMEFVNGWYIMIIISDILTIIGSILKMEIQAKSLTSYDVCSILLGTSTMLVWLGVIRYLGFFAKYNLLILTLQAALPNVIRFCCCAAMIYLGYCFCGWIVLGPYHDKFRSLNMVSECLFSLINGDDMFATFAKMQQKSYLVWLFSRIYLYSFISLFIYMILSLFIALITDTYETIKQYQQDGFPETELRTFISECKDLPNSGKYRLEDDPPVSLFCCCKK
Method in brief: (§1)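 HEK-293 Trex, dox-induced (0.5 ug/mL), mutated for surface expression. Fluo4-AM 1 micromolar load ~60 min, dark; buffer modified Ringer's, 10 mM Ca. Cpds 20 micromolar–6 nanomolar final, half-log, n=3. Read ex 480/em 540; % activity vs controls; EC50 nonlinear fit.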

[2] = molecular target: TRPML1 (Homo sapiens, UniProt Q9GZU1); experiment: Fluorescent TRPML1 assay (Fluo4-AM calcium fluorescence in doxycycline-induced HEK-293 Trex cells)
Method in brief: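 hTRPML1 (mutated for cell-surface expression) in HEK-293 Trex, dox 0.5 ug/mL o/n; Fluo4-AM 1 uM ~60 min, then ~60 min de-esterification, dark; modified Ringer's + 10 mM Ca. Cmpds 20 uM–6 nM final, half-log, n=3. Ex480/Em540; % activity vs ctrls; EC50 by nonlinear regression.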

[3] = molecular target: T2, TRPML2 (Homo sapiens, UniProt Q8IZK6); experiment: Fluorescent TRPML2 assay (performed as for TRPML1, substituting the TRPML2 subtype)
T2 construct: expressed in transfected cells
T2 sequence (Q8IZK6 1-566): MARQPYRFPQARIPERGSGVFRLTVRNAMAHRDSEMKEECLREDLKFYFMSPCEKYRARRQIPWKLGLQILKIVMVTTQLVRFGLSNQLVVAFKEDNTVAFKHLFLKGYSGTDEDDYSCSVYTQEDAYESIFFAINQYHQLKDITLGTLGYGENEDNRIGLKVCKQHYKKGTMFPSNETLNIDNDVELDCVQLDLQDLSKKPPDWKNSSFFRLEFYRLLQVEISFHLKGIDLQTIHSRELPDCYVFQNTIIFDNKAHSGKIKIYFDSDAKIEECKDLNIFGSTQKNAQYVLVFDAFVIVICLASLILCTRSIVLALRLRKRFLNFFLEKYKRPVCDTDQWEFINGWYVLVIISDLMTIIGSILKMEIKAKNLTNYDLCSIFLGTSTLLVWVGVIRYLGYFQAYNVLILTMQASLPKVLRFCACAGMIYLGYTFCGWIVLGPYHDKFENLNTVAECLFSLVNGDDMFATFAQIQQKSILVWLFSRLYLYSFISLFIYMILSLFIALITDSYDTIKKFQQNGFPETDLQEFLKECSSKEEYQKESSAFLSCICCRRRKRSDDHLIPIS
Method in brief: as §1

Sequence of TRPML1 (Q9GZU1 whole entry L15A/L16A/L577A/L578A, form open): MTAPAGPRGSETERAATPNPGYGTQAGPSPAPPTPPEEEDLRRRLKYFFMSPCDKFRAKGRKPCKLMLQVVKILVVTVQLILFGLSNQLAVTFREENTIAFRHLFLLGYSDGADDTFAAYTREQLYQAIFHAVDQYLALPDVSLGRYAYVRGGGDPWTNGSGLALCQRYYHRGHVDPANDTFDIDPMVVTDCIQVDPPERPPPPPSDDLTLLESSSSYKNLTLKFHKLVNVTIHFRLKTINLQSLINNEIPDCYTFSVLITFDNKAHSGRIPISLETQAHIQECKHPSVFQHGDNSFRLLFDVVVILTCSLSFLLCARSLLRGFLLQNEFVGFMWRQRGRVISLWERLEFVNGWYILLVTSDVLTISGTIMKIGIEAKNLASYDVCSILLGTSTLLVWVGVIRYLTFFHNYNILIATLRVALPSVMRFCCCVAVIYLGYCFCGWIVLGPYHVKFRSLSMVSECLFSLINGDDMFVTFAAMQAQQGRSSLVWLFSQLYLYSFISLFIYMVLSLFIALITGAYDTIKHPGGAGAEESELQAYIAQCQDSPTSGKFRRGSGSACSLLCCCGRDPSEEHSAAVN

| SMILES | EC50 [1] [nM] | EC50 [2] [nM] | EC50 [3] [nM] |
| --- | --- | --- | --- |
| C[C@@H]1CN(c2ncnc3c2c(-c2cccnc2)cn3-c2cc(F)cc(F)c2)CCN1C(=O)OC(C)(C)C [Compound 214, tert-butyl (R)-4-(7-(3,5-difluorophenyl)-5-(pyridin-3-yl)-7H-pyrrolo[2,3-d]pyrimidin-4-yl)-2-methylpiperazine-1-carboxylate] | 100 to 500 | 100 to 500 | 500 to 2000 |
| C[C@@H]1CN(c2ncnc3c2c(-c2ccccn2)cn3-c2cc(F)cc(F)c2)CCN1C(=O)OC(C)(C)C [Compound 215, tert-butyl (R)-4-(7-(3,5-difluorophenyl)-5-(pyridin-2-yl)-7H-pyrrolo[2,3-d]pyrimidin-4-yl)-2-methylpiperazine-1-carboxylate] | 100 to 500 | 100 to 500 | 500 to 2000 |
| C[C@@H]1CN(c2ncnc3c2c(-c2ccncc2)cn3-c2cc(F)cc(F)c2)CCN1C(=O)OC(C)(C)C [Compound 216, tert-butyl (R)-4-(7-(3,5-difluorophenyl)-5-(pyridin-4-yl)-7H-pyrrolo[2,3-d]pyrimidin-4-yl)-2-methylpiperazine-1-carboxylate] | 100 to 500 | < 100 | 500 to 2000 |
| C[C@H]1CN(C(=O)OC(C)(C)C)CCN1c1ncnc2c1c(C1CC1)cn2-c1cccc(F)c1F [Compound 217, tert-butyl (S)-4-(5-cyclopropyl-7-(2,3-difluorophenyl)-7H-pyrrolo[2,3-d]pyrimidin-4-yl)-3-methylpiperazine-1-carboxylate] | 100 to 500 | 100 to 500 | 500 to 2000 |
| C[C@H]1CN(C(=O)OC(C)(C)C)CCN1c1ncnc2c1c(C1CC1)cn2-c1cc(F)ccc1F [Compound 218, tert-butyl (S)-4-(5-cyclopropyl-7-(2,5-difluorophenyl)-7H-pyrrolo[2,3-d]pyrimidin-4-yl)-3-methylpiperazine-1-carboxylate] | < 100 | < 100 | 500 to 2000 |
| C[C@H]1CN(C(=O)OC(C)(C)C)CCN1c1ncnc2c1c(C1CC1)cn2-c1ccc(F)c(F)c1 [Compound 219, tert-butyl (S)-4-(5-cyclopropyl-7-(3,4-difluorophenyl)-7H-pyrrolo[2,3-d]pyrimidin-4-yl)-3-methylpiperazine-1-carboxylate] | < 100 | < 100 | 100 to 500 |
| C[C@@H]1CN(c2ncnc3c2c(C2CC2)cn3-c2cccc(Cl)c2F)CCN1C(=O)OC(C)(C)C [Compound 220, tert-butyl (R)-4-(7-(3-chloro-2-fluorophenyl)-5-cyclopropyl-7H-pyrrolo[2,3-d]pyrimidin-4-yl)-2-methylpiperazine-1-carboxylate] | < 100 | < 100 | 100 to 500 |
| C[C@@H]1CN(c2ncnc3c2c(-c2ccccn2)cn3-c2cc(F)cc(Cl)c2)CCN1C(=O)OC(C)(C)C [Compound 221, tert-butyl (R)-4-(7-(3-chloro-5-fluorophenyl)-5-(pyridin-2-yl)-7H-pyrrolo[2,3-d]pyrimidin-4-yl)-2-methylpiperazine-1-carboxylate] | < 100 | < 100 | 100 to 500 |
| C[C@@H]1CN(c2ncnc3c2c(-c2cccnc2)cn3-c2cc(F)cc(Cl)c2)CCN1C(=O)OC(C)(C)C [Compound 222, tert-butyl (R)-4-(7-(3-chloro-5-fluorophenyl)-5-(pyridin-3-yl)-7H-pyrrolo[2,3-d]pyrimidin-4-yl)-2-methylpiperazine-1-carboxylate] | < 100 | < 100 | 500 to 2000 |
| C[C@@H]1CN(c2ncnc3c2c(-c2cnccn2)cn3-c2cc(F)cc(Cl)c2)CCN1C(=O)OC(C)(C)C [Compound 223, tert-butyl (R)-4-(7-(3-chloro-5-fluorophenyl)-5-(pyrazin-2-yl)-7H-pyrrolo[2,3-d]pyrimidin-4-yl)-2-methylpiperazine-1-carboxylate] | 100 to 500 | 100 to 500 | 500 to 2000 |
| C[C@@H]1CN(c2ncnc3c2c(C2CC2)cn3-c2cc(Cl)ccc2F)CCN1C(=O)OC(C)(C)C [Compound 224, tert-butyl (R)-4-(7-(5-chloro-2-fluorophenyl)-5-cyclopropyl-7H-pyrrolo[2,3-d]pyrimidin-4-yl)-2-methylpiperazine-1-carboxylate] | < 100 | < 100 | 100 to 500 |
| C[C@H]1CN(C(=O)OC(C)(C)C)CCN1c1ncnc2c1c(-c1cccnc1)cn2-c1cccc(Cl)c1 [Compound 225, tert-butyl (S)-4-(7-(3-chlorophenyl)-5-(pyridin-3-yl)-7H-pyrrolo[2,3-d]pyrimidin-4-yl)-3-methylpiperazine-1-carboxylate] | < 100 | < 100 | 100 to 500 |
| C[C@H]1CN(C(=O)OC(C)(C)C)CCN1c1ncnc2c1c(-c1cccnc1)cn2-c1cccc(F)c1 [Compound 226, tert-butyl (S)-4-(7-(3-fluorophenyl)-5-(pyridin-3-yl)-7H-pyrrolo[2,3-d]pyrimidin-4-yl)-3-methylpiperazine-1-carboxylate] | 100 to 500 | 100 to 500 | 500 to 2000 |
| C[C@H]1CN(C(=O)OC(C)(C)C)CCN1c1ncnc2c1c(N1CCOCC1)cn2-c1cc(F)cc(F)c1 [Compound 228, tert-Butyl (S)-4-(7-(3,5-difluorophenyl)-5-morpholino-7H-pyrrolo[2,3-d]pyrimidin-4-yl)-3-methylpiperazine-1-carboxylate] | 100 to 500 | 100 to 500 | 500 to 2000 |
| C[C@@H]1CN(C(=O)OC(C)(C)C)CCN1c1ncnc2c1c(N1CCOCC1)cn2-c1cccc(Cl)c1 [Compound 229, tert-Butyl (R)-4-(7-(3-chlorophenyl)-5-morpholino-7H-pyrrolo[2,3-d]pyrimidin-4-yl)-3-methylpiperazine-1-carboxylate] | 100 to 500 | 500 to 2000 | 500 to 2000 |
| C[C@H]1CN(C(=O)OC(C)(C)C)CCN1c1ncnc2c1c(N1CCOCC1)cn2-c1cccc(Cl)c1 [Compound 230, tert-Butyl (S)-4-(7-(3-chlorophenyl)-5-morpholino-7H-pyrrolo[2,3-d]pyrimidin-4-yl)-3-methylpiperazine-1-carboxylate] | < 100 | 100 to 500 | 100 to 500 |
| C[C@H]1CN(C(=O)OC(C)(C)C)CCN1c1ncnc2c1c(-c1ccccc1F)cn2-c1ccccn1 [Compound 231, tert-butyl (S)-4-(5-(2-fluorophenyl)-7-(pyridin-2-yl)-7H-pyrrolo[2,3-d]pyrimidin-4-yl)-3-methylpiperazine-1-carboxylate] | < 100 | < 100 | 100 to 500 |
| C[C@@H]1CN(c2ncnc3c2c(C2CC2)cn3-c2cc(F)cc(F)c2)[C@@H](C)CN1C(=O)OC(C)(C)C [Compound 232, tert-butyl (2R,5S)-4-(5-cyclopropyl-7-(3,5-difluorophenyl)-7H-pyrrolo[2,3-d]pyrimidin-4-yl)-2,5-dimethylpiperazine-1-carboxylate] | < 100 | < 100 | 500 to 2000 |
| C[C@@H]1CN(c2ncnc3c2c(-c2cnccn2)cn3-c2cc(F)cc(F)c2)CCN1C(=O)OC(C)(C)C [Compound 233, tert-butyl (R)-4-(7-(3,5-difluorophenyl)-5-(pyrazin-2-yl)-7H-pyrrolo[2,3-d]pyrimidin-4-yl)-2-methylpiperazine-1-carboxylate] | 100 to 500 | 500 to 2000 | 500 to 2000 |
| CC(C)(C)OC(=O)N1CCN(c2ncnc3c2c(C2CC2)cn3-c2cc(F)c(F)c(F)c2)CC1 [Compound 234, tert-butyl 4-(5-cyclopropyl-7-(3,4,5-trifluorophenyl)-7H-pyrrolo[2,3-d]pyrimidin-4-yl)piperazine-1-carboxylate] | 100 to 500 | 100 to 500 | 500 to 2000 |
